This test deals with T1, Kinesin-like protein KIF18A (Homo sapiens, UniProt Q8NI77).
T1 sequence (Q8NI77 whole entry): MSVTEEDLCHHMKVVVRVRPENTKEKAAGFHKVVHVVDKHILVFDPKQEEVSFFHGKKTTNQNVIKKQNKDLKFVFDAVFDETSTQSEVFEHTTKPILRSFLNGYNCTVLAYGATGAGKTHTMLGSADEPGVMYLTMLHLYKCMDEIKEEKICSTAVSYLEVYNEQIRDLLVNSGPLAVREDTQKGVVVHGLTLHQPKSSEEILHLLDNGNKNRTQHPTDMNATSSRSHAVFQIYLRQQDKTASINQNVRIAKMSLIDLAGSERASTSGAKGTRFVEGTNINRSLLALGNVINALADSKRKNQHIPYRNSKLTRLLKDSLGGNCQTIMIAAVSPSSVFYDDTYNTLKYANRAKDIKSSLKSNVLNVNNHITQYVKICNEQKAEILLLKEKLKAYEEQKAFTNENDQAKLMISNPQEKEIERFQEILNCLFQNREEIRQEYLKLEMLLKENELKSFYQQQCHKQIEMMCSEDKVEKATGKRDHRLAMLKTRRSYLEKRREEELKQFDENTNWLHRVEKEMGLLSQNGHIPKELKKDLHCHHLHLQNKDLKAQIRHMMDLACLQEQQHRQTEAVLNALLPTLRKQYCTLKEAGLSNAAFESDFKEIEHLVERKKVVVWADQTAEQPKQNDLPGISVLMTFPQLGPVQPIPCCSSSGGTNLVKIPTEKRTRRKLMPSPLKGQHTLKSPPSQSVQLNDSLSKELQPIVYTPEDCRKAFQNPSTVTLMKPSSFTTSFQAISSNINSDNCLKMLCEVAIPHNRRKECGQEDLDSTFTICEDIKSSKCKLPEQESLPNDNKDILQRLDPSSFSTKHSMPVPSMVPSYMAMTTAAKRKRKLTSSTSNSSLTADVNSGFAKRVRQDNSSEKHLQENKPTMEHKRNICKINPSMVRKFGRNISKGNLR
Nature of the test: Inhibition of KIF18A Enzyme Activity. As to the method:
The ADP-Glo method was used to test the enzymatic activity of KIF18A. The compound was diluted 3-fold with DMSO at a starting concentration of 3000 nM, for a total of ten concentrations, and tested in duplicate. Echo was used to transfer 25 nL of the diluted compound to a 384-well plate, and 2.5 μL of enzyme working solution was added. Plate was centrifuged at 1000 rpm for 1 min, and incubated at 25° C. for 10 min. 2.5 μL of ATP and substrate solution was added to start the reaction, and plate was incubated at 25° C. for 60 min. 4 μL of ADP-Glo solution was added to the 384-well plate, and plate was incubated at 25° C. for 40 min. 8 μL of detection solution was added and incubated at 25° C. for 40 min, and BMG was used to read the […] value. Inhibition rate was calculate according to the following formula: Inhibition rate (%)=(DMSO well−compound well)/(DMSO well−blank control well)×100%. The IC50 value of each compound was analyzed using the nonlinear regression method of XLFit 5.5.0 software. The formula is: Y=Bottom+(Top−Bottom)/(1+10^((Log IC50−X)*HillSlope)).
With `Cc1cc(NC(=O)c2ccc(NS(=O)(=O)[C@@H](C)CO)cc2N2CCC(=C(F)F)CC2)nc(N2CCC(F)(F)CC2)n1` [US20250214965, Compound 69], the IC50 was < 100 nM. As for `Cc1cc(NC(=O)c2ccc(NS(=O)(=O)CCO)cc2N2CCC(=C(F)F)CC2)nc(N2CCC(F)(F)CC2)c1F` [US20250214965, Compound 79], the IC50 was < 50 nM. Turning to `Cc1cc(NC(=O)c2ccc(NS(=O)(=O)[C@H](C)CO)cc2N2CCC(=C(F)F)CC2)nc(N2CCC(F)(F)CC2)n1` [US20250214965, Compound 68], the IC50 was < 50 nM. With `Cc1cc(NC(=O)c2ccc(NS(=O)(=O)CCO)cc2N2CCC3(CC2)CC3)nc(N2CCC(F)(F)CC2)c1F` [US20250214965, Compound 85], the IC50 is < 50 nM.

In the case of `Cc1cc(NC(=O)c2ccc(NS(=O)(=O)[C@H](C)CO)cc2N2CCC(=C(F)F)CC2)nc(N2CCC(F)(F)CC2)c1` [US20250214965, Compound 82], the IC50 is < 50 nM.

One may read the IC50 as the midpoint of a concentration-inhibition curve. High values mean a need for much substance, low ones inhibition by little substance.

For the origin of these results see BindingDB's records for patent US20250214965 (Hangzhou Innogate Pharma, 2025).
